# Laboratory results reported in paper PMC10762078, “Role of UPF1-LIN28A interaction during early differentiation of pluripotent stem cells” (Nature Communications, 2024).
# System: hPSCs
# Assay: RT-qPCR of pluripotency and germ-layer markers during differentiation with CPP-peptides (Supplementary Fig. 7b-e)
# Assay type: cell-based, human
# Details: for CXCR4 (RT-qPCR) / FOXA1 (RT-qPCR) / GATA4 (RT-qPCR) / SOX17 (RT-qPCR): Fig. s7e; for BMP2 mRNA level (RT-qPCR) / BMP4 mRNA level (RT-qPCR) / CDH2 mRNA level (RT-qPCR) / CXCR4 mRNA level (RT-qPCR) / SNAI1 mRNA level (RT-qPCR) / TBXT mRNA level (RT-qPCR): Fig. s7d
# Procedure: For CPP-conjugated peptide delivery, HeLa, 293T, and PA-1 cells were incubated with CPP-conjugated peptides or CPP-FITC at 2 μM in DMEM with 10% FBS for 12 h a day before cell harvest. hPSCs were treated with CPP-conjugated peptides at 10 μM in mTeSR Plus Medium, and the peptide-containing medium was changed every day over 10 days. The ROCK inhibitor (Tocris Bioscience, Y-27632) treated-hPSCs were dissociated into single cells using Accutase (Merck, SCR005) and differentiated into ectoderm, mesoderm, and endoderm using the STEMdiff Trilineage Differentiation Kit ([…] Technologies, 05230) following the manufacturer’s protocol. Differentiated cells treated with CPP-conjugated peptides were analysed at 0, 3, and 5 days for ectoderm and endoderm, and at 0, 3, and 4 days for mesoderm. […]
# cDNA was synthesised using RevertAid Reverse Transcriptase (Thermo Fisher Scientific, EP0441) with synthesised random hexamer (Macrogen) for total RNA or stem-loop primers for miRNA. For RT-qPCR reactions, the SensiFAST SYBR No-ROX kit (Meridian Bioscience) was used according to the manufacturer’s protocol. All data analysis and visualisation were conducted using R 3.6.1 [www.r-project.org] or GraphPad Prism 10. RT primers for miRNA and RT-qPCR primer sequences are provided in Supplementary Data 6. […]
# FPKM of each gene was presented f r om RNA-seq analysis. b–e hPSCs wer e treated with the indicated peptide during each germ la ye r differentiation. […]
# An unpaired Student’s t-test was used for a–e. Data are presented as mean values ± SEM. All statistical test us ed wer e two-s ided. T he m inim um number of independent biological replicate experim ents was a–f n = 3. T he experiments wer e conducted three tim es, each iteration producing consistent results.
substance,measurement,setting,value
"KKKWCRKKKSSADEKRYRALKRTAERELLMNA [CPP-P8, CPP conjugated to P8]",transcripts downregulated in ectodermal differentiation,ectodermal differentiation,"downregulated the expression of genes closely associated with CNS development (DCX, NEUROD1, NOS2, and PAX3)"
same,transcripts upregulated in ectodermal differentiation,ectodermal differentiation,"upregulated the essential transcription factors for retinal gliogenesis and NOTCH signalling (LHX2, NOTCH1, and DLK1)"
"N-MPELQKLQQLKDE-C [P2, peptide derived from the UPF1 (419–700) domain]",CXCR4 (RT-qPCR),"Day 0, replicate 1",1.088
same,CXCR4 (RT-qPCR),"Day 0, replicate 2",0.7848
same,CXCR4 (RT-qPCR),"Day 0, replicate 3",1.127
same,CXCR4 (RT-qPCR),"Day 3, replicate 1",897.043
same,CXCR4 (RT-qPCR),"Day 3, replicate 2",593.555
same,CXCR4 (RT-qPCR),"Day 3, replicate 3",261.141
same,CXCR4 (RT-qPCR),"Day 5, replicate 1",674.407
same,CXCR4 (RT-qPCR),"Day 5, replicate 2",690.257
same,CXCR4 (RT-qPCR),"Day 5, replicate 3",509.637
same,FOXA1 (RT-qPCR),"Day 0, replicate 1",1.247
same,FOXA1 (RT-qPCR),"Day 0, replicate 2",1.413
same,FOXA1 (RT-qPCR),"Day 0, replicate 3",0.3396
same,FOXA1 (RT-qPCR),"Day 3, replicate 1",120.605
same,FOXA1 (RT-qPCR),"Day 3, replicate 2",127.453
same,FOXA1 (RT-qPCR),"Day 3, replicate 3",128.785
same,FOXA1 (RT-qPCR),"Day 5, replicate 1",296.789
same,FOXA1 (RT-qPCR),"Day 5, replicate 2",436.764
same,FOXA1 (RT-qPCR),"Day 5, replicate 3",611.507
same,BMP2 mRNA level (RT-qPCR),"Day 0, replicate 1",0.8054
same,BMP4 mRNA level (RT-qPCR),"Day 0, replicate 1",1.545
same,CDH2 mRNA level (RT-qPCR),"Day 0, replicate 1",1.016
same,CXCR4 mRNA level (RT-qPCR),"Day 0, replicate 1",0.9995
same,SNAI1 mRNA level (RT-qPCR),"Day 0, replicate 1",1.4406
same,TBXT mRNA level (RT-qPCR),"Day 0, replicate 1",1.3
same,BMP2 mRNA level (RT-qPCR),"Day 0, replicate 2",1.199
same,BMP4 mRNA level (RT-qPCR),"Day 0, replicate 2",0.6508
same,CDH2 mRNA level (RT-qPCR),"Day 0, replicate 2",0.7569
same,CXCR4 mRNA level (RT-qPCR),"Day 0, replicate 2",1.121
same,SNAI1 mRNA level (RT-qPCR),"Day 0, replicate 2",0.9418
same,TBXT mRNA level (RT-qPCR),"Day 0, replicate 2",0.8652
same,BMP2 mRNA level (RT-qPCR),"Day 0, replicate 3",0.9954
same,BMP4 mRNA level (RT-qPCR),"Day 0, replicate 3",0.8046
same,CDH2 mRNA level (RT-qPCR),"Day 0, replicate 3",1.227
same,CXCR4 mRNA level (RT-qPCR),"Day 0, replicate 3",0.8798
same,SNAI1 mRNA level (RT-qPCR),"Day 0, replicate 3",0.6176
same,TBXT mRNA level (RT-qPCR),"Day 0, replicate 3",0.8351
same,BMP2 mRNA level (RT-qPCR),"Day 3, replicate 1",1.083
same,BMP4 mRNA level (RT-qPCR),"Day 3, replicate 1",30.6184
same,CDH2 mRNA level (RT-qPCR),"Day 3, replicate 1",23.3268
same,CXCR4 mRNA level (RT-qPCR),"Day 3, replicate 1",950.283
same,SNAI1 mRNA level (RT-qPCR),"Day 3, replicate 1",22.3091
same,TBXT mRNA level (RT-qPCR),"Day 3, replicate 1",6339.58
same,BMP2 mRNA level (RT-qPCR),"Day 3, replicate 2",0.8465
same,BMP4 mRNA level (RT-qPCR),"Day 3, replicate 2",25.9141
same,CDH2 mRNA level (RT-qPCR),"Day 3, replicate 2",19.1392
same,CXCR4 mRNA level (RT-qPCR),"Day 3, replicate 2",710.257
same,SNAI1 mRNA level (RT-qPCR),"Day 3, replicate 2",18.7714
same,TBXT mRNA level (RT-qPCR),"Day 3, replicate 2",5442.29
same,BMP2 mRNA level (RT-qPCR),"Day 3, replicate 3",1.108
same,BMP4 mRNA level (RT-qPCR),"Day 3, replicate 3",28.7876
same,CDH2 mRNA level (RT-qPCR),"Day 3, replicate 3",24.2422
same,CXCR4 mRNA level (RT-qPCR),"Day 3, replicate 3",582.163
same,SNAI1 mRNA level (RT-qPCR),"Day 3, replicate 3",15.4609
same,TBXT mRNA level (RT-qPCR),"Day 3, replicate 3",8084.66
same,BMP2 mRNA level (RT-qPCR),"Day 4, replicate 1",0.2114
same,BMP4 mRNA level (RT-qPCR),"Day 4, replicate 1",7.214
same,CDH2 mRNA level (RT-qPCR),"Day 4, replicate 1",11.5611
same,CXCR4 mRNA level (RT-qPCR),"Day 4, replicate 1",685.489
same,SNAI1 mRNA level (RT-qPCR),"Day 4, replicate 1",15.012
same,TBXT mRNA level (RT-qPCR),"Day 4, replicate 1",2940.28
same,BMP2 mRNA level (RT-qPCR),"Day 4, replicate 2",0.2729
same,BMP4 mRNA level (RT-qPCR),"Day 4, replicate 2",9.74
same,CDH2 mRNA level (RT-qPCR),"Day 4, replicate 2",14.1794
same,CXCR4 mRNA level (RT-qPCR),"Day 4, replicate 2",388.959
same,SNAI1 mRNA level (RT-qPCR),"Day 4, replicate 2",19.2435
same,TBXT mRNA level (RT-qPCR),"Day 4, replicate 2",3606.85
same,BMP2 mRNA level (RT-qPCR),"Day 4, replicate 3",0.3615
same,BMP4 mRNA level (RT-qPCR),"Day 4, replicate 3",11.782
same,CDH2 mRNA level (RT-qPCR),"Day 4, replicate 3",17.5421
same,CXCR4 mRNA level (RT-qPCR),"Day 4, replicate 3",349.009
same,SNAI1 mRNA level (RT-qPCR),"Day 4, replicate 3",14.5806
same,TBXT mRNA level (RT-qPCR),"Day 4, replicate 3",4470.07
same,GATA4 (RT-qPCR),"Day 0, replicate 1",0.7242
same,GATA4 (RT-qPCR),"Day 0, replicate 2",1.3517
same,GATA4 (RT-qPCR),"Day 0, replicate 3",0.9241
same,GATA4 (RT-qPCR),"Day 3, replicate 1",32.2036
same,GATA4 (RT-qPCR),"Day 3, replicate 2",43.7097
same,GATA4 (RT-qPCR),"Day 3, replicate 3",38.0896
same,GATA4 (RT-qPCR),"Day 5, replicate 1",51.4498
same,GATA4 (RT-qPCR),"Day 5, replicate 2",54.8514
same,GATA4 (RT-qPCR),"Day 5, replicate 3",109.794
same,SOX17 (RT-qPCR),"Day 0, replicate 1",1.264
same,SOX17 (RT-qPCR),"Day 0, replicate 2",0.8709
same,SOX17 (RT-qPCR),"Day 0, replicate 3",0.8647
same,SOX17 (RT-qPCR),"Day 3, replicate 1",1792.04
same,SOX17 (RT-qPCR),"Day 3, replicate 2",907.999
same,SOX17 (RT-qPCR),"Day 3, replicate 3",1484.43
same,SOX17 (RT-qPCR),"Day 5, replicate 1",1721.02
same,SOX17 (RT-qPCR),"Day 5, replicate 2",1190.77
same,SOX17 (RT-qPCR),"Day 5, replicate 3",1778.6
